The record followed here is PubChem BioAssay (NCI).

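Each compound was tested at five concentrations against cells in 96-well plates for 48 hours. TGI: concentration producing complete growth inhibition.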

Common to all, as to experiment: DTP human tumour cell line panel, 48 h
The test system of test [1] is SNB-75 CNS.
The subject of test [2] is SK-OV-3 ovarian.
Test [3] has as its system NCI/ADR-RES ovarian.
The test system of test [4] is MDA-N.
Test [5] deals with A498 renal.
Test [6] concerns MOLT-4 leukemia.
The test system of test [7] is UO-31 renal.
Test [8] concerns NCI-H522 lung.
For test [9], the system named is RPMI-8226 leukemia.
In test [10] the test system is CCRF-CEM leukemia.
The subject of test [11] is OVCAR-3 ovarian.

As for `CC1=C/C(=N/N2C(=O)/C(=C/c3ccc(Cl)cc3)N=C2c2ccccc2)CC(C)(C)C1`, the TGI in [1] was 93.6 µM; in test [2] it was more than 100 µM; in test [3] it was more than 100 µM; in test [4], more than 100 µM; in test [5], more than 100 µM; in test [6], more than 100 µM. Besides, the TGI in [7], in [8] and in [9] was more than 100 µM in each case.

Turning to `CC(=O)Oc1ccn2nc(C)c(Br)c2c1Br`, the TGI in [1] is more than 56.2 µM; in test [10], 47.1 µM; in test [11], 33.4 µM; in [3], more than 100 µM; in [4], 32.6 µM; in test [5], 72.9 µM. Moreover, the TGI in test [6] is 34.9 µM; in [7], more than 29.6 µM; in test [8], 36.8 µM.

`O=c1c2cc(Br)ccc2oc2nc3n(c(=O)c12)CCCS3`: the TGI in [1], in test [10], in test [11], in [3], in [4] and in [5] was more than 100 µM each time. Also, the TGI in test [6], in [7], in test [8] and in [9] was more than 100 µM throughout.

With `CC(C)CCCC(C)[C@H]1CC[C@H]2[C@@H]3CC[C@H]4C[C@@H](CCC=C(c5cc(Cl)c(O)c(C(=O)OC(C)(C)C)c5)c5cc(Cl)c(O)c(C(=O)OC(C)(C)C)c5)CC[C@]4(C)[C@H]3CC[C@]12C` (some centres undefined), the TGI in test [1], in [10], in test [11], in test [2], in test [3] and in test [4] was more than 50 µM in each case. The TGI in test [5], in [6] and in test [9] was more than 50 µM each time.

With `NC1CC2C3CCC2C1C3=O` (centres undefined), the concentration for total growth inhibition (TGI) in test [1], in test [10], in test [11], in test [2], in [3] and in test [4] was more than 100 µM in each case. Further, the TGI in [5], in test [6], in test [7] and in [8] was more than 100 µM in each case.

Take `COc1nn(Cc2ccccc2F)c2ccc([N+](=O)[O-])cc12`: the TGI is more than 100 µM in [1]; more than 100 µM in test [10]; more than 100 µM in [11]; more than 100 µM in test [3]; more than 100 µM in test [4]; more than 92.3 µM in test [5]. In addition, the TGI in [6], in test [7] and in [8] was more than 100 µM each time.

For `COc1cc(/C=C2\N=C(c3ccccc3)N(C3Nc4cc5c(cc4S3)NC(N3C(=O)/C(=C/c4cc(OC)c(OC)c(OC)c4)N=C3c3ccccc3)S5)C2=O)cc(OC)c1OC` (centres undefined), the TGI in test [1], in test [11], in test [3], in test [4], in [5] and in test [6] was more than 100 µM throughout. The figures for the TGI in test [7], in [8] and in test [9] were more than 100 µM, more than 100 µM and 95.1 µM, respectively.

As to `C#CC(O)/C=C/CCCCCCC#CC/C=C\CC#CCCCCCC/C=C/C(O)C#C` (centres undefined), the TGI in [1] came to 20.9 µM; in [10], 0.722 µM; in [11] it was 7.99 µM; in test [2], 32.1 µM; in test [3], 8.26 µM; in test [4], 7.52 µM. In addition, the values for the TGI in [5], in test [6] and in test [7] were 9.06 µM, 0.371 µM and 0.915 µM, respectively.

For the compound `CCC(=O)OCc1ccc2oc(=O)c(C(=O)Oc3cncc(Cl)c3)cc2c1`, the TGI in test [1] was more than 100 µM; in test [10] it was 24.8 µM; in [11], more than 100 µM; in [2] it was more than 100 µM; in test [3] it was more than 100 µM; in test [4], more than 100 µM. The TGI in test [6], in test [7], in [8] and in [9] was more than 100 µM each time.

In the case of `Cc1cc(C)c2c(n1)S(=O)(=O)N(CCCN1CCN(c3cccc(C(F)(F)F)c3)CC1)/C(=C(\O)c1ccccc1)C2=O`, the TGI in [1] is 19.2 µM; in [10], more than 100 µM; in [11], 18.1 µM; in [2], 84.7 µM; in test [3], 22.4 µM; in test [4], more than 100 µM. Moreover, the TGI in test [5] was more than 100 µM; in [6] it was 10.8 µM; in test [7], 52.7 µM; in test [8] it was 88.9 µM.

For the compound `COc1ccc(C(=O)N2CCN(c3ccc4c(c3)OCC(=O)N4)CC2)cc1`, the TGI in test [1], in test [10], in test [11], in test [2], in test [3] and in test [4] was more than 100 µM in each case. Besides, the TGI in [6], in test [7], in test [8] and in test [9] was more than 100 µM throughout.

Consider `O=C(O)Cc1ccc(N2N=C(c3ccccc3)CC2=O)cc1`, for which the TGI in test [1], in test [10], in test [11], in test [2], in test [3] and in test [4] was more than 100 µM in each case. For the same compound, the TGI in test [5], in test [6], in test [7] and in [8] was more than 100 µM throughout.

Turning to `COC(=O)C(NC(=O)CNC(=O)CSc1nnc(COc2ccc(Cl)cc2)n1-c1ccccc1)C(C)C` (centres undefined), the TGI in test [1] was 37.5 µM; in test [10], more than 100 µM; in test [11], 31.6 µM; in test [3], more than 100 µM; in test [4] it was 51.2 µM; in test [5], 56.7 µM. The TGI in test [6] is more than 100 µM; in [7], 33.3 µM; in test [8] it was 19.3 µM; in [9], 46.7 µM.

As for `OC(c1cccs1)c1cc2ccccc2s1` (centres undefined), the TGI in test [1], in [10], in test [11], in test [2], in test [3] and in [4] was more than 10 µM in each case. The TGI in [6], in test [7], in test [8] and in test [9] was more than 10 µM throughout.
